Assay results taken from ChEMBL document CHEMBL1201862, “PubChem BioAssay data set” (2004).
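How tested: cells in 96-well plates exposed to compound for 48 hours at five concentrations. GI50 = concentration required for 50% inhibition of growth.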 Active and inactive are the calls of the source. Cut-off read from the data, not from the text of the source: active = GI50 up to about 1.1 µM and inactive = higher.

How the values were obtained:
Assay in all cases: growth of human tumour cells (NCI), 48 h
A549 = test system: A549
COLO 205 = test system: COLO 205
KM12 = test system: KM12
LOX IMVI = test system: LOX IMVI
MOLT-4 = test system: MOLT-4
Malme-3M = test system: Malme-3M
NCI-H23 = test system: NCI-H23
NCI-H522 = test system: NCI-H522
OVCAR-5 = test system: OVCAR-5
RPMI-8226 = test system: RPMI-8226
SK-MEL-28 = test system: SK-MEL-28
SK-MEL-5 = test system: SK-MEL-5
SK-OV-3 = test system: SK-OV-3
SN12C = test system: SN12C
UACC-62 = test system: UACC-62
UO-31 = test system: UO-31

Measured: GI50

Cc1ccc(S(=O)(=O)c2c3nc4ccccc4nc3n3c2[nH]c2ccccc23)cc1
inactive: A549 > 100 µM | COLO 205 > 100 µM | KM12 58.1 µM | LOX IMVI > 100 µM | MOLT-4 > 100 µM | Malme-3M > 100 µM | NCI-H23 > 100 µM | NCI-H522 > 100 µM | OVCAR-5 > 100 µM | RPMI-8226 > 100 µM | SK-MEL-28 > 100 µM | SK-MEL-5 > 100 µM | SK-OV-3 > 100 µM | SN12C > 100 µM | UACC-62 25.7 µM | UO-31 > 100 µM

C=C(CN(C)C)C(=O)c1ccc(C(=O)C(=C)CN(C)C)cc1
inactive: A549 35.2 µM | COLO 205 > 100 µM | KM12 > 100 µM | LOX IMVI > 100 µM | MOLT-4 > 100 µM | Malme-3M > 100 µM | NCI-H23 > 100 µM | NCI-H522 > 100 µM | OVCAR-5 > 100 µM | RPMI-8226 > 100 µM | SK-MEL-28 > 100 µM | SK-MEL-5 > 100 µM | SK-OV-3 > 100 µM | SN12C > 100 µM | UACC-62 > 100 µM | UO-31 > 100 µM

COc1ccc2c3c1C(=O)CCC3CO2 (stereo unspecified)
inactive: A549 > 100 µM | COLO 205 > 100 µM | KM12 > 100 µM | LOX IMVI > 100 µM | MOLT-4 > 100 µM | Malme-3M > 100 µM | NCI-H23 > 100 µM | NCI-H522 > 100 µM | OVCAR-5 > 100 µM | RPMI-8226 > 100 µM | SK-MEL-28 > 100 µM | SK-MEL-5 > 100 µM | SK-OV-3 > 100 µM | SN12C > 100 µM | UACC-62 > 100 µM | UO-31 > 100 µM

CN1C2C=C(c3ccccc3)CC1CC2 (stereo unspecified)
inactive: A549 > 100 µM | COLO 205 > 100 µM | KM12 > 100 µM | LOX IMVI > 100 µM | MOLT-4 > 100 µM | Malme-3M > 100 µM | NCI-H23 > 100 µM | NCI-H522 > 100 µM | OVCAR-5 > 100 µM | RPMI-8226 > 100 µM | SK-MEL-28 > 100 µM | SK-MEL-5 > 100 µM | SK-OV-3 > 100 µM | SN12C > 100 µM | UACC-62 > 100 µM | UO-31 > 100 µM

Cc1cccc(C(C)C)c1NC(=O)C(=O)CC(=O)c1c(C)[n+]([O-])c2ccccc2[n+]1[O-]
inactive: A549 36.7 µM | COLO 205 33.1 µM | KM12 38.6 µM | LOX IMVI 23 µM | MOLT-4 21.5 µM | Malme-3M 18.7 µM | NCI-H23 18.8 µM | NCI-H522 21.9 µM | OVCAR-5 45.9 µM | RPMI-8226 22.2 µM | SK-MEL-28 36.1 µM | SK-MEL-5 34 µM | SK-OV-3 > 100 µM | SN12C 30.6 µM | UACC-62 21.5 µM | UO-31 > 100 µM

CCOc1cccc2ccc[n+](CC)c12
inactive: A549 48.6 µM | COLO 205 40.8 µM | KM12 49.7 µM | LOX IMVI 91.6 µM | MOLT-4 > 100 µM | Malme-3M > 100 µM | NCI-H23 15.9 µM | NCI-H522 16.4 µM | OVCAR-5 > 100 µM | RPMI-8226 > 100 µM | SK-MEL-28 > 100 µM | SK-MEL-5 45.5 µM | SK-OV-3 > 100 µM | SN12C 53.1 µM | UACC-62 > 100 µM | UO-31 > 100 µM

CC1(C)CC(=O)C/C(=N/c2ccc([N+](=O)[O-])cc2)C1
inactive: A549 > 100 µM | COLO 205 29.6 µM | KM12 > 100 µM | LOX IMVI 19.2 µM | MOLT-4 58.6 µM | Malme-3M > 100 µM | NCI-H23 > 100 µM | NCI-H522 40.9 µM | OVCAR-5 > 100 µM | RPMI-8226 53.5 µM | SK-MEL-28 > 100 µM | SK-MEL-5 > 100 µM | SK-OV-3 > 100 µM | SN12C 71.8 µM | UACC-62 > 100 µM | UO-31 54.6 µM

CC1=NN(C(=O)CC(=O)Nc2ccccc2)C(=O)C1/N=N/c1ccc(S(N)(=O)=O)cc1 (stereo unspecified)
inactive: A549 > 100 µM | COLO 205 > 100 µM | KM12 > 100 µM | LOX IMVI 75.5 µM | MOLT-4 37.5 µM | Malme-3M > 100 µM | NCI-H23 78 µM | NCI-H522 39 µM | OVCAR-5 > 100 µM | RPMI-8226 84.5 µM | SK-MEL-28 61.4 µM | SK-MEL-5 36.4 µM | SK-OV-3 > 100 µM | SN12C 41.9 µM | UACC-62 32.8 µM | UO-31 57.8 µM

Cc1cc2c(=O)cc(-c3ccc(F)cc3)oc2c(C(=O)O)c1C
inactive: A549 > 100 µM | COLO 205 > 100 µM | KM12 > 100 µM | LOX IMVI > 100 µM | MOLT-4 > 100 µM | Malme-3M > 100 µM | NCI-H23 > 100 µM | NCI-H522 > 100 µM | OVCAR-5 > 100 µM | RPMI-8226 > 100 µM | SK-MEL-28 > 100 µM | SK-MEL-5 > 100 µM | SK-OV-3 > 100 µM | SN12C > 100 µM | UACC-62 > 100 µM | UO-31 > 100 µM

COc1cc(/C=C2\NC(=O)C(Cc3cc(OC)c(OC)c(C)c3OC)N(C(C)=O)C2=O)c(OC)c(C)c1OC (stereo unspecified)
inactive: A549 > 100 µM | COLO 205 54.7 µM | KM12 94.6 µM | LOX IMVI > 100 µM | MOLT-4 33.3 µM | Malme-3M 83.6 µM | NCI-H23 > 100 µM | NCI-H522 21.8 µM | OVCAR-5 > 100 µM | RPMI-8226 45.6 µM | SK-MEL-28 > 100 µM | SK-MEL-5 42.9 µM | SK-OV-3 > 100 µM | SN12C > 100 µM | UACC-62 > 100 µM | UO-31 85.1 µM

CC1(C)OC(=S)N(c2ccccc2)C12C=Cc1cc3ccccc3nc1S2 (stereo unspecified)
inactive: A549 > 100 µM | COLO 205 84.3 µM | KM12 > 100 µM | LOX IMVI 59 µM | MOLT-4 26.9 µM | Malme-3M > 100 µM | NCI-H23 29.6 µM | NCI-H522 32.6 µM | OVCAR-5 > 100 µM | RPMI-8226 33.7 µM | SK-MEL-28 > 100 µM | SK-MEL-5 56.9 µM | SK-OV-3 > 100 µM | SN12C > 100 µM | UACC-62 > 100 µM | UO-31 73.5 µM

BrC1=CC=C2NC=CC3=CC=NC1C32 (stereo unspecified)
inactive: COLO 205 21.6 µM | KM12 24.2 µM | LOX IMVI 9.55 µM | MOLT-4 2.75 µM | Malme-3M 27.7 µM | NCI-H23 7.71 µM | NCI-H522 11.5 µM | OVCAR-5 19.1 µM | RPMI-8226 11.4 µM | SK-MEL-28 37.7 µM | SK-MEL-5 20 µM | SK-OV-3 25.1 µM | SN12C 18.6 µM | UACC-62 9.53 µM | UO-31 14.5 µM
